From patent US20200270216A1, “COMPOSITIONS AND METHODS FOR INHIBITING N-SMASE2” (The Regents of the University of California, priority 2017, published 2020) come the findings set out here.

Common to all, as to format: cell-based
Test [1] has as its system HEK293T Tau RD P301S FRET biosensor cells. Nature of the test: D+R functional assay: tau seed transfer from P2-seeded donor cells to DiD-labeled recipient cells. The note with it: D+R model, flow cytometry (FIG. 4C). The protocol:
The compounds disclosed herein were further evaluated in the functional assays (“D+R approach”). The assays were based on the use of two cell populations—donor cells (D) and recipient cells (R). Recipients express a specific signal upon accumulation of protein aggregates (for example, FRET signal). The D+R approach can be divided into four steps (FIG. 4A).
In step 1, donor and recipient cells were plated in separation and protein aggregation is induced in the donor cells by using tissue-derived or synthetic proteopathic seeds (“seeding”) or by chemical and/or genetic methods. In step 2, either donor cells or recipient cells were labeled with a lipophilic dye (or by other cell labeling technology) in order to be able to distinguish between donor and recipients cells after trypsinization and re-plating of the donor and recipient cells together in step 3 (R+D). Alternatively, donor and recipient cells were physically divided by a permeable support (for example, Transwell). In any scenario, the cells were connected through the media and they grow for 24-60 hours with or without addition of pre-selected compounds. Efficiency of proteopathic seed transmission from donor cells to recipient cells can be analyzed using microscopy, flow cytometry, or imaging flow cytometry. […] Treatment of the tau biosensor cells with tau seeds lead to RD aggregation, as a result, CFP and YFP molecules come into close proximity and a FRET signal can be generated in the CFP/YFP pair upon illumination. The far-red fluorescent, lipophilic carbocyanine dye, DiD, was used for labeling recipient cells. This dye allowed for distinguishing between the DiD-negative donor and the DiD positive recipient cells without interference with the CFP/YFP FRET signal. The representative images of DiD-negative FRETpositive donor cell seeded with P2-derived tau seeds), DiD-positive FRET-negative recipient cell (DiD-R), and DiD positive FRET-positive recipient cell, which were growing in the presence of P2-D (DiD-R/R+D) are presented at the FIG. 4B. […]
For orientation: A flow cytometer gives signals particle by particle.

Test [2] shares this test system. The test can be described thus: EV-mediated tau transfer assay. The protocol: For EV (extracellular vesicles)-mediated tau transfer assay, donor cells, transduced with AD-brain derived synaptosomal extracts (P2) or synthetic K18 seeds, were cultured for 48 hours in exosome-free medium with or without indicated concentration of tested compounds or DMSO for control, then medium was collected and EVs were purified using Exo-Quick-TC exosome purification kit (SBI, EXOTC10A-1) according to the manufacturing instructions. Naive recipient cells were plated at density 30,000 cells per well (96-well plates), grown for 12 hour in regular medium and then medium was exchanged to exosome-depleted medium, contained exosomes purified from donor cells (each well of recipients received amount of exosomes purified from one well of donor cells). Recipient cells were cultured in the presence of donor cell exosomes for 60 hrs. EV-mediated transfer assay scheme is presented at the FIG. 5A (right).
HEK293T Tau RD P301S FRET biosensor cells were growing in the Dulbecco's Modified Eagle's medium (DMEM) with higher glucose, 10% FBS, and 1% Penicillin-streptomycin at 37° C./5% CO2. Cells were plated in 10-sm dishes (3 million cells per dish in the regular medium) and grown for 12 hrs. Cells assigned to be donors were transduced with pulled synaptosomal (P2) extracts from AD cases using lipofectamine 2000, according to the published literature with minor modifications. We used 35 μg of pulled AD or control (NL) material per one 10-sm dish (TableS1). Defrosted P2 extracts were sonicated in water bath sonicator for 10 minutes, and diluted with Opti-MEM serum reduced medium to the final volume 200 μL per 10-sm dish. In a separate tube lipofectamine 2000 were combined with Opti-MEM medium, based on 25 μl of lipofectamine and 175 μL OptiMEM medium per each 10-sm dish, and incubated for 10 minutes at room temperature (RT). Each P2 or NL extract mix (200 μl) and prepared lipofectamine 2000 mix (200 μl) were combined and incubated for 20 min at RT. Each 10-sm dish with cell received 400 μl of the final liposomes in the total volume of medium 5 ml per dish. Cultures treated with equal amount of empty liposomes were used as an additional control group. Cells were incubated with liposomes for 20 hrs.
For “D+R” assay recipient cells were labeled with 1,1′-Dioctadecyl-3,3,3′,3′-tetramethylindodicarbocyanine (DiD) according to manufacturer's protocol (ThermoFisher V22887) on day 2. On day 3, donor cells were trypsinized (0.05% Trypsin/EDTA), washed with fresh exosome-free medium contained 10% of exosome-depleted FBS (ThermoFisher, A2720803). DiD-labeled recipient cells were also trypsinized and washed in exosome-free medium. […] FRET signal was detected using LSRII flow cytometer (BD biosciences). […]

Test [3] relates to P2-seeded tau biosensor cells. The test can be described thus: EV purification and characterization (immunoblot of exosome markers, nanoparticle tracking analysis). The settings on record: 50 μM, 48 hours, nanoparticle tracking analysis. The text has this:
Extracellular vesicles (EVs) were purified from the cell culture medium using Exo-Quick-TC exosome purification kit (SBI, EXOTC10A-1) according to the manufacturing instructions. Immunoblot analysis of the EV fractions was done by 10-20% Tris-Glycine gel in non-reduced conditions, transferred to PVDF membrane and probed with antibodies against CD63 (ThermoFisher, 10628D), followed by HRP-conjugated secondary antibodies. Chemiluminescent signals were obtained with Super Signal West Femto substrate (Thermo Scientific Pierce 34,095) and detected using a BioSpectrum 600 imaging system and quantified using VisionWorks Version 6.6A software (UVP; Upland, Calif.). […] Inhibition of nSMase2 activity in cell extracts of confluent tau biosensors was confirmed by nSMase2 activity assay analogous to the one described in Example 2.
Our analysis confirmed that nSMase2 inhibitors suppress release of EVs from P2-seeded tau biosensor cells. […] EV samples purified from the same number of donor cells were analyzed per each group. Purified EVs were imaged by transmission electron microscopy (FIG. 5C). Size distribution of particles in the samples were assessed by nanoparticle tracking analysis (FIG. 5D). WB analysis for exosome markers also confirmed decrease in the exosome-specific marker expression (FIG. 5E).
Donor cells were grown in medium with exosome-depleted FBS (ThermoFisher, A2720803) for 48 hours with or without compounds, cell culture medium was collected and EVs purified using ExoQuick-TC kit (SBI biosciences). For quality control, small amounts of purified EVs were fixed on a copper mesh in glutaraldehyde/paraformaldehyde solution, stained with 2% uranyl acetate solution and imaged on a JEOL 100CX electron microscope at 29,000 times magnification. […] Chemiluminescent signals were obtained with Super Signal West Femto substrate (Thermo Scientific Pierce 34095) and detected using a BioSpectrum 600 imaging system and quantified using VisionWorks Version 6.6A software (UVP; Upland, Calif.).
Background: Immunoblotting shows a protein as a band on a membrane.

In the case of `O=C(/C=C/c1ccc(/C=C/C(=O)Nc2ccc(C3=NCCN3)cc2)cc1)Nc1ccc(C2=NCCN2)cc1` [GW4869], in test [1], the “tau seed transmission from donor cells to recipient cells” value was “restrained tau seed transmission from the donor cells to the recipient cells in a dose-dependent manner”. In addition, the “EV-mediated transfer of tau to recipient cells” value in test [2] (P2-seeded donor cells treated at 50 μM, 48 hours) is listed as “decrease”. The “reduction of EV-mediated transfer of tau seeds to naive recipient cells” value in test [2] (inhibitor treatment of donor cells) is reported as 2.6 times. In addition, the “release of EVs from P2-seeded donor cells” value in test [3] is “released less EVs”.
